# “Also recorded” adds a separate entry of the source. Where a SMILES comes first, the peptide text is derived from it. The star is where a group is joined. AMC = Cc1cc(=O)oc2cc(N*)ccc12
# How the values were obtained:
# Parkin [1] = assay: Parkin recruitment to mitochondria, subcellular fractionation and immunoblot; type: cell-based, human; conditions: HEK293 T-REx PINK1 cells, HA-Parkin-IRES-GFP; 5 μM compound 5, CCCP 10 μM or Antimycin A 30 μM
# Experimental: (§1) Inducible stable Flp-In HEK293 T-REx cells expressing PINK1 were described previously.[33] HEK293 T-REx PINK1 and HEK293T cells were grown in DMEM (Gibco) supplemented with 10% (v/v) fetal bovine serum (ThermoFisher), 1% (v/v) GlutaMAX (Gibco), 1% (v/v) sodium pyruvate (Gibco), 125 μg/mL hygromycin (Invitrogen), and 10 μg/mL blasticidin (Gibco) or DMEM supplemented with 10% (v/v) fetal bovine serum, respectively, at 37 °C in 5% (v/v) CO2. For microscopy, cells were seeded on poly-L-lysine (Sigma)-coated slides. Transient plasmid transfections were performed using 25 kDa linear polyethylenimine (Polysciences). Plasmid (100 ng) encoding HA-Parkin-IRES-GFP, mito-mCherry or Parkin-mEGFP, or 500 ng plasmid encoding PGAM5-FLAG were used per 6-well. Total transfected DNA was 2 μg/well. For siRNA transfection, 2 × 10^5 cells were seeded per 6-well and on the next day transfected with 20 nM siRNA-oligonucleotide using lipofectamine RNAiMAX (ThermoFisher). Cells were analyzed 27 h post-transfection or five days post-siRNA-transfection. HEK293 T-REx PINK1 cells were induced with 0.3 μg/mL doxycycline for 24 h before further processing. Hoechst staining (1 μg/mL) was done immediately before adding treatment to the cells. Treatments were administered for the indicated times before processing; CCCP (Sigma) was always used as 10 μM for 3 h and Antimycin A (Sigma) as 30 μM for 3 h.
# Unless mentioned otherwise, all steps were performed at 4 °C. For subcellular fractionation to separate cellular content into cytosolic and mitochondrial fractions, cells were washed with PBS, harvested in PBS-EDTA (1 mM EDTA, 0.2 g/L D-glucose), and centrifuged at 500 × g for 5 min. […]
# For immunoblot analysis in other cases, cells were either processed as described above or washed with PBS and directly lysed with Tris-glycine SDS-PAGE sample buffer and heated for 15 min at 65 °C. […] For quantification, ImageJ was used (http://rsb.info.nih.gov/ij/). […]
# Parkin [2] = assay: Parkin recruitment to mitochondria and mitochondrial morphology, fluorescence microscopy; type: cell-based, human; conditions: HEK293 T-REx PINK1 cells, 3 h
# Experimental: as §1
# (§2) For fixation, cells were incubated for 15 min with 4% formaldehyde (16% formaldehyde diluted in PBS, Thermo Scientific) and washed in PBS. The cover glasses were mounted with Fluoromount-G (Southern Biotech) on microscope slides. […] Parkin recruitment events to the mitochondria were counted by hand throughout each z-stack and cell. […] JC-1 images were handled as summed intensity z-stack projections, as well as subjected to flatfield correction and subtraction of background before measuring the fluorescence levels normalized to the number of cell nuclei. The fluorescence intensity ratio between the red and green signal was calculated and compared to DMSO as a ratio of 1. Data were evaluated using Excel and GraphPad Prism 6.
# HEK293T cells = assay: JC-1 mitochondrial membrane potential assay; type: cell-based, human; conditions: 5 µM compound 5 or CCCP, at least three hours, compared to DMSO
# Experimental: Staining of cells for the determination of mitochondrial membrane potential was carried out with the JC-1 mitochondrial staining kit (Sigma-Aldrich) according to the kit’s instructions; stained cells were immediately taken to live cell imaging.
# as §2, with “slides. All microscopy was performed on an LSM 780 system (Carl Zeiss) with a Plan-APOCHROMAT 63× 1.4NA oil objective (Carl Zeiss) and pinhole settings of 1 AU with the Zeiss ZEN 2010 software. Image processing and analysis was performed using ImageJ (http://rsb.info.nih.gov/ij/).” for “slides.”
# [3] = Solubility of fluorogenic substrates in assay buffer (qualitative)
# GlpG [4] = molecular target: T1, GlpG (Escherichia coli, UniProt P09391); type: biochemical, E. coli
# T1 construct: Full-length GlpG with C-terminal His-tag was overexpressed from pET25b + in E. coli C43(DE3); His-tag (C); made in house; host or cells: E. coli C43(DE3)
# Experimental: Emission spectra of aminomethyl coumarin and cleavage of compound 1 were monitored in 50 mM potassium phosphate pH 7.4, 150 mM NaCl, 20% (w/v) glycerol, 0.05% (w/v) PEG8000, 0.05% (w/v) DDM, 10% (w/v) DMSO. The compounds (1 mM) were incubated with 10 μM GlpG WT or S201T, 1 μM elastase, or buffer, respectively, as indicated in the legend of Figure 1A at 37 °C for 1 h. Samples were diluted 8-fold with buffer, and emission spectra were measured in 96-well black HTS plates (Greiner Bio-One) by a plate reader (Tecan Infinite M1000) using an excitation wavelength of 355 nm. Data were evaluated using Excel (Microsoft) and GraphPad Prism 9 (GraphPad Software, Inc.). The data shown are representative of three independent experiments.
# (§3) Activity and inhibition assays of GlpG shown in Figure 1B–D were carried out in 50 mM potassium phosphate pH 7.4, 150 mM NaCl, 20% (v/v) glycerol, 0.05% (w/v) PEG8000, 0.05% (w/v) DDM, and 5% (v/v) DMSO. […] All activity measurements were performed at 37 °C in 96-well black HTS plates (Greiner Bio-One) and fluorescence was monitored in a plate reader (Tecan Infinite M1000) with excitation and emission wavelengths set to 355 and 450 nm, respectively, for compound 1, and 335 and 493 nm, respectively, for the transmembrane substrate KSp96. Data were evaluated using Excel (Microsoft) and GraphPad Prism 9 (GraphPad Software, Inc.).
# Activity measurements of GlpG with varying DDM concentrations were obtained in 20 mM HEPES (pH 7.4), 150 mM NaCl using 100 nM GlpG, and DDM at the concentration indicated in the graphs. Buffer for measurements with compound 1 contained additionally 5% (v/v) DMSO. Compound 1 and transmembrane substrate were used at 10 μM final concentration. Activity measurements were performed at 37 °C in 96-well black HTS plates (Greiner Bio-One), and fluorescence was monitored in a plate reader (Tecan Infinite M1000) with excitation and emission wavelengths set to 355 and 450 nm for compound 1 and 335 and 493 nm for the transmembrane substrate, respectively. Data were evaluated using Excel (Microsoft) and GraphPad Prism 9 (GraphPad Software, Inc.).
# GlpG [5] = molecular target: T1, GlpG; assay: Inhibition assay of GlpG with fluorogenic substrate compound 1; type: biochemical, E. coli; conditions: detergent-solubilized GlpG 100 nM, substrate compound 1, 1 h preincubation at 37 °C, mean ± SEM of three measurements
# Experimental: as §3
# PARL = molecular target: T2, PARL (Homo sapiens, UniProt Q9H300); assay: In vitro assay for PARL activity, cleavage of AMC substrates by liposome-embedded PARL; type: biochemical; parameters: hexahistidine tag (C); made in house; host or cells: continuous-exchange cell-free expression in bacterial lysates with T7 polymerase (CUBE biotech), into liposomes; conditions: mature PARL in liposomes, S277A catalytic mutant as control
# T2 sequence (Q9H300 53-379): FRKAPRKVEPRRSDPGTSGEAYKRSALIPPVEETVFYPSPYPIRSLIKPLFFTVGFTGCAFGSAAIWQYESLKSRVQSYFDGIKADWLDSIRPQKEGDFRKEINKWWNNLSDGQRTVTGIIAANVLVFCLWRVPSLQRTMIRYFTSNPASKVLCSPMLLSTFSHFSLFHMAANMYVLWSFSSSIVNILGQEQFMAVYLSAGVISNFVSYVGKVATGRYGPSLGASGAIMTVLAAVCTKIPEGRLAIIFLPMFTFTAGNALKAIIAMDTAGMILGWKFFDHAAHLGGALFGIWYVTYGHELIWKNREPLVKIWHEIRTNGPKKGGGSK
# Experimental: Liposome preparation and cell-free protein expression of PARL were carried out essentially as described previously.[27] Liposomes resembling the lipid composition of the IMM were prepared by mixing 40% DOPC (1,2-dioleoyl-sn-glycero-3-phosphocholine), 33.8% DOPE (1,2-dioleoyl-sn-glycero-3-phosphoethanolamine), 18% CL(18:1)4 (1′,3′-bis[1,2-dioleyl-sn-glycero-3-phospho]-glycerol), 3% DOPS (1,2-dioleoyl-sn-glycero-3-phospho-L-serine), 5% soy-PI (L-α-phosphatidylinositol), and 0.2% rhodamine-PE (1,2-dioleoyl-sn-glycero-3-phosphoethanolamine-N-(lissamine rhodamine B sulfonyl)) in chloroform, followed by the evaporation of chloroform by a stream of nitrogen gas and drying in a vacuum chamber (Binder) for 1 h. […] Concentration of PARL was determined by absorption at 280 nm.
# The PARL activity assay in vitro was carried out in 5 mM Tris, 5 mM Mg(OAc)2, 25 μM Zn(OAc)2, 0.1 μg/μL BSA, 30% DMSO, pH 8.0 using PARL in liposomes at 0.05 mg/mL. Compound 3 and 4 were used at 5 μM final concentration based on quantitative amino acid analysis. […] The cleavage reaction was carried out at 37 °C in 96-well black HTS plates (Greiner Bio-One) in a plate reader (Tecan Infinite M1000) with excitation and emission wavelengths set to 355 and 450 nm, respectively. Data were evaluated using Excel (Microsoft) and GraphPad Prism 9 (GraphPad Software, Inc.).
# T1 sequence (P09391 whole entry): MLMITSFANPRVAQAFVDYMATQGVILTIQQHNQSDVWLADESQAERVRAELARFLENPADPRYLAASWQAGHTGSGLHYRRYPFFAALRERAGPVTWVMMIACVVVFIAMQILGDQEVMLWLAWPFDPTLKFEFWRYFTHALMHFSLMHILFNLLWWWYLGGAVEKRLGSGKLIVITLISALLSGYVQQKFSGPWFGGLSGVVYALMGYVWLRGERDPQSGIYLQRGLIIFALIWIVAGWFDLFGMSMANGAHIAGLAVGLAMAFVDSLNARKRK
compound,measurement,setting,value
"N#CC(C#N)=NNc1cccc(Cl)c1 [CCCP, carbonyl cyanide m-chlorophenyl hydrazone]",Parkin recruitment to the mitochondrial fraction,Parkin [1],significant recruitment of Parkin to the mitochondrial fraction
same,Mitochondrial morphology,Parkin [2],severe rounding and clustering
same,Effect on mitochondrial membrane potential (JC-1 aggregate to monomer ratio),HEK293T cells,lowers the membrane potential
"CC(=O)N[C@@H](CCCNC(=N)N)C(=O)N[C@H](C(=O)N[C@@H](CCCNC(=N)N)C(=O)N[C@@H](Cc1c[nH]cn1)C(=O)N[C@@H](C)C(=O)Nc1ccc2c(C)cc(=O)oc2c1)C(C)C [compound 1, AcRVRHA-4mc] (Ac-RVRHA-{AMC})",Solubility of substrate,[3],sufficiently soluble to be useable at hundreds of micromolar concentrations
same,Apparent Michaelis constant for substrate,GlpG [4]; GlpG in DDM micelle environment,approximately 500 μM
same,Michaelis constant KM for substrate,"GlpG [4]; GlpG, detergent",about half
same,Cleavage of substrate by GlpG,GlpG [4]; detergent micelles and/or DIBMA lipid nanodiscs,cleaved by GlpG with similar efficiency in lipid nanodiscs and in detergent micelles; also recorded: can be cleaved by active GlpG embedded in polymer nanodiscs
CC(=O)N[C@H](C(=O)N[C@@H](CCCNC(=N)N)C(=O)N[C@@H](Cc1c[nH]cn1)C(=O)N[C@@H](C)C(=O)C(=O)NCCCCc1ccccc1)C(C)C [compound 2],IC50,GlpG [5],132 ± 23 nM
"CC(=O)N[C@@H](CCCNC(=N)N)C(=O)N[C@@H](CCCNC(=N)N)C(=O)N[C@@H](CCCNC(=N)N)C(=O)N[C@@H](C)C(=O)N[C@H](C(=O)N[C@@H](Cc1ccccc1)C(=O)N[C@@H](CC(C)C)C(=O)N[C@@H](C)C(=O)Nc1ccc2c(C)cc(=O)oc2c1)C(C)C [compound 4, AcRRRAVFLA-4mc] (Ac-RRRAVFLA-{AMC})",Cleavage of substrate by liposome-embedded PARL,PARL,are cleaved by liposome-embedded PARL but not its catalytic mutant

# From paper PMC9841525, “Chemical Blockage of the Mitochondrial Rhomboid Protease PARL by Novel Ketoamide Inhibitors Reveals Its Role in PINK1/Parkin-Dependent Mitophagy” (Journal of Medicinal Chemistry, 2022)
